Assay results from paper PMC6478909 (Scientific Reports, 2019).
Read-outs that look alike come from different tables or passages of the source.

What was measured:
[1] = biological target: T1, precorrin-4 C(11)-methyltransferase (CobM), Cp-CobM (Corynebacterium pseudotuberculosis, UniProt D9QAC4); assay: biochemical; type: binding
[2] = biological target: T1, precorrin-4 C(11)-methyltransferase (CobM), Cp-CobM; assay: biochemical; type: binding; remark: listed apart in the source

T1 sequence (D9QAC4 1-257): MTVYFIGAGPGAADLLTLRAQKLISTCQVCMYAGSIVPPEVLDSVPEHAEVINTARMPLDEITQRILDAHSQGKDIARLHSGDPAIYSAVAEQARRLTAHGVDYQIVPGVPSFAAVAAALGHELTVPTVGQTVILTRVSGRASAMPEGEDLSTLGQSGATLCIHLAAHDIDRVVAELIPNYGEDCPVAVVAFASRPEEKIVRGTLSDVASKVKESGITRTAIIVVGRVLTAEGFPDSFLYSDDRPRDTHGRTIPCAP

SMILES	Kd [1]	Kd [2]
Nc1ncnc2c1ncn2[C@H]1C[C@H](O)[C@@H](COP(=O)(O)OP(=O)(O)OP(=O)(O)O)O1 [dATP]	15.8 ± 2 µM	–
Nc1ncnc2nc[nH]c12 [adenine]	17.8 ± 1.5 µM	–
C[S+](CC[C@H](N)C(=O)[O-])C[C@H]1O[C@@H](n2cnc3c(N)ncnc32)[C@H](O)[C@@H]1O (stereo partly shown) [SAM]	–	1.4 ± 0.7 µM
Cc1ccc(C(=O)Nc2ccc(S(=O)(=O)O)c3cc(S(=O)(=O)O)cc(S(=O)(=O)O)c23)cc1NC(=O)c1cccc(NC(=O)Nc2cccc(C(=O)Nc3cc(C(=O)Nc4ccc(S(=O)(=O)O)c5cc(S(=O)(=O)O)cc(S(=O)(=O)O)c45)ccc3C)c2)c1 [suramin]	–	6.3 ± 1.1 µM
